≈ marks a conversion by molar mass, not a printed value.
Key:
[1] = test system: Mycobacterium tuberculosis; assay: Antimycobacterial activity against Mycobacterium bovis var. bovis BCG in 7H9 liquid medium after 7 days; assay type: functional; conditions: variant bovis BCG, 168 h
[2] = test system: Mycobacterium tuberculosis; assay: Antimycobacterial activity against Mycobacterium bovis var. bovis BCG in 7H11 solid medium after 7 days; assay type: functional; conditions: variant bovis BCG, 168 h

CC(=O)Oc1ccccc1C(=O)Nc1ncc([N+](=O)[O-])s1 [NITAZOXANIDE]
MIC [1]: 16 µg/mL (≈ 52.1 µM) | MIC [2]: 16 µg/mL (≈ 52.1 µM)

Reference: ChEMBL document CHEMBL1153535, “Nitazoxanide kills replicating and nonreplicating Mycobacterium tuberculosis and evades resistance” (J Med Chem, 2009)
